What was measured:
male Wistar rats [1] = experiment: Oral glucose tolerance test (OGTT); format: in vivo; settings: rat; for Glucose 0-120 min AUC (percent vehicle response): 30 min before glucose 2 g/kg
From the text: All in vivo protocols were approved by the Pfizer's Animal Welfare Committee. Naive male Wistar rats (225-250 g body weight on receipt) were obtained from Harlan Laboratories (Indianapolis, Ind.), were pair housed in hanging plastic caging on Sani-chips sawdust bedding, and fed ad libitum on Purina 5001 chow. The rats were housed under a controlled light cycle (light from 6 am to 6 pm) at controlled temperature and humidity conditions. Rats were acclimated to the facility for at least 1 week prior to study.
Example 17 was formulated in 0.5% methylcellulose. The highest dose (30 mg/kg) was formulated at 6 mg/mL for administration at 5 mL/kg, the required bulk was added to a mortar and ground with a small amount of 0.5% methylcellulose to a smooth paste with a pestle, additional 0.5% methylcellulose was added until the mixture flowed, when it was transferred to a stirred container, the mortar was rinsed several times with remaining quantity of 0.5% methylcellulose and capped to prevent evaporation. The suspension was stirred continuously overnight with a magnetic stir bar prior to study, and the lower doses were diluted from the 6 mg/mL suspension using the appropriate volume of 0.5% methylcellulose. All dosing suspensions were stirred throughout the dosing procedure.
Rats were stratified (n=8/group) to vehicle (0.5% methylcellulose) or one of three dose groups (1, 5, or 30 mg/kg) according to body weight on day-1 to ensure that each group had equal group mean body weight values. The rats were fasted overnight in clean cages overnight (˜15 hours) prior to the oral glucose tolerance test. Body weights were recorded on the morning of the study (post fasting) for dose volume calculation. Blood samples were collected from all rats prior to dosing with vehicle or test compound via oral gavage (5 mL/kg). Thirty minutes later rats were bled and immediately dose with an oral dose of glucose (2 g/kg). The rats were re-bled at 15, 30, 60 and 120 minutes post-glucose load. Blood samples (˜250 μL/time point) were collected into EDTA tubes with aprotinin/DPPIVi (0.6 TIU/2 μL per mL whole blood). Blood tubes were inverted several times immediately following collection and placed on ice, then spun at 14,000 rpm in a refrigerated centrifuge for 5 minutes. Plasma samples were analyzed for glucose levels using a Roche 912 clinical chemistry analyzer, plasma insulin concentrations were determined using the Alpco Ultra-Sensitive Insulin Rat ELISA, and total amide GLP-1 concentrations were determined using MSD ELISA kit.
The results are presented as mean+/−SEM (standard error of the mean) unless otherwise stated. Statistical evaluation of the data is carried out using one-way analysis of variance (ANOVA) with appropriate post-hoc analysis between vehicle and treatment group. Differences compared to vehicle with a p>0.05 were considered statistically significant using Dunnett's T-test.

male Wistar rats [2] = experiment: Intraperitoneal glucose tolerance test (IPGTT); format: in vivo; settings: rat, 20 mg/kg in 0.5% methylcellulose, IP glucose administered 30 minutes post dose

Row | Structure (SMILES) | Insulin 0-60 min AUC (percent vehicle response) (male Wistar rats [1]; 1 mg/kg oral) | Total Amide GLP-1 0-120 min AUC (percent vehicle response) (male Wistar rats [1]; 1 mg/kg oral) | Glucose 0-120 min AUC (percent vehicle response) (male Wistar rats [1]; 1 mg/kg oral) | Insulin 0-60 min AUC (percent vehicle response) (male Wistar rats [1]; 5 mg/kg oral) | Total Amide GLP-1 0-120 min AUC (percent vehicle response) (male Wistar rats [1]; 5 mg/kg oral) | Glucose 0-120 min AUC (percent vehicle response) (male Wistar rats [1]; 5 mg/kg oral) | Insulin 0-60 min AUC (percent vehicle response) (male Wistar rats [1]; 30 mg/kg oral) | Total Amide GLP-1 0-120 min AUC (percent vehicle response) (male Wistar rats [1]; 30 mg/kg oral) | Glucose 0-120 min AUC (percent vehicle response) (male Wistar rats [1]; 30 mg/kg oral) | Insulin AUC (0-60 min) (percent vehicle response) (male Wistar rats [2])
1 | Cc1c(O[C@H]2CCN(C(=O)OC3(C)CC3)C[C@H]2F)ncnc1N1CCc2ncccc21 [Example 17, 1-Methylcyclopropyl (3R,4S)-4-{[6-(2,3-dihydro-1H-pyrrolo[3,2-b]pyridin-1-yl)-5-methylpyrimidin-4-yl]oxy}-3-fluoropiperidine-1-carboxylate] | 90 | 147 | 102 | 142 | +184 percent vehicle response | 95 | 112 | 150 | ++90 percent vehicle response | –
2 | CC(C)OC(=O)N1CCC(Oc2cc(N3CCc4cc(S(C)(=O)=O)ccc43)ncn2)CC1 [Example 3, Isopropyl 4-({6-[5-(methylsulfonyl)-2,3-dihydro-1H-indol-1-yl]pyrimidin-4-yl}oxy)piperidine-1-carboxylate] | – | – | – | – | – | – | – | – | – | 104

— US20100285145A1, “GPR 119 MODULATORS” (PFIZER INC, priority 2009, published 2010)
